Each compound was assayed against T1, IDO1 (Homo sapiens, UniProt P14902) (assay: Cell-based (HeLa) assay for measurement of IDO1 inhibition (kynurenine levels in supernatant after IFNγ induction)). Details: HeLa cells, IFNγ-induced IDO1, kynurenine in supernatant after 48 hour incubation; geometric mean of a minimum of four determinations.
T1 construct: HeLa cells were treated with a test compound in the presence of IFNγ, which induces IDO1 expression; host or cells: H1-HeLa cells, IDO1 induced with IFNγ
Procedure, shortened: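 HeLa cells, 1,250 per well, treated with compound (0.5% DMSO final) plus IFNγ to induce IDO1, for 48 h. Supernatant kynurenine measured by TCA hydrolysis at 60 °C, then p-dimethylaminobenzaldehyde, absorbance 480 nm. EC50 from a four-parameter fit normalized to −/+IFNγ controls; geometric mean of at least four runs.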

T1 sequence (P14902 whole entry): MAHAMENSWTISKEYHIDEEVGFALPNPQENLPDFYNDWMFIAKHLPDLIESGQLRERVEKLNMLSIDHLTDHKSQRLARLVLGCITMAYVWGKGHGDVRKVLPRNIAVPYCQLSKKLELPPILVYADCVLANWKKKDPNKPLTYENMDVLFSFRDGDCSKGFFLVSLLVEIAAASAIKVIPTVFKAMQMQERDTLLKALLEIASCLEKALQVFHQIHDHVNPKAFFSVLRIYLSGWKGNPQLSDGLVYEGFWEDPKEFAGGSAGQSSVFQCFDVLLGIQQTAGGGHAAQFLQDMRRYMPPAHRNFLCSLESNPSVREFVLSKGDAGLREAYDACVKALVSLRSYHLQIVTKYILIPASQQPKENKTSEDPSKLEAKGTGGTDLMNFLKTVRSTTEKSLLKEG

EC50 [nM] | SMILES
8480 | O/N=C(\Nc1ccc(F)c(Cl)c1)c1ccnc2nc(-c3ccn[nH]3)[nH]c12 [Example 150, N-(3-Chloro-4-fluorophenyl)-N′-hydroxy-2-(1H-pyrazol-5-yl)-1H-imidazo[4,5-b]pyridine-7-carboximidamide]
312 | Nc1nc2c(F)ccc(/C(=N/O)Nc3cccc(Br)c3)c2[nH]1 [Example 18, 2-Amino-N-(3-bromophenyl)-4-fluoro-N′-hydroxy-1H-benzo[d]imidazole-7-carboximidamide]
2080 | O/N=C(\Nc1ccc(F)c(Cl)c1)c1ccnc2nc(CNCCc3ccccn3)[nH]c12 [Example 125, N-(3-Chloro-4-fluorophenyl)-N′-hydroxy-2-(((2-(pyridin-2-yl)ethyl)amino)methyl)-1H-imidazo[4,5-b]pyridine-7-carboximidamide]
926 | O/N=C(\Nc1ccc(F)c(Cl)c1)c1ccc(C(F)(F)F)c2nc[nH]c12 [Example 7, N-(3-Chloro-4-fluorophenyl)-N′-hydroxy-4-(trifluoromethyl)-1H-benzo[d]imidazole-7-carboximidamide]
3830 | COCCN(C)CCNc1nc2nccc(/C(=N/O)Nc3ccc(F)c(Cl)c3)c2[nH]1 [Example 219, N-(3-chloro-4-fluorophenyl)-N′-hydroxy-2-((2-((2-methoxyethyl)(methyl)amino)ethyl)amino)-1H-imidazo[4,5-b]pyridine-7-carboximidamide]
1930 | O/N=C(\Nc1ccc2ccccc2c1)c1ccnc2nc[nH]c12 [Example 102, N′-hydroxy-N-(naphthalen-2-yl)-1H-imidazo[4,5-b]pyridine-7-carboximidamide]
1650 | CN1CCCC(c2nc3c(F)c(F)cc(/C(=N/O)Nc4cccc(Cl)c4)c3[nH]2)C1 (centres unmarked) [Example 44, N-(3-Chlorophenyl)-4,5-difluoro-N′-hydroxy-2-(1-methylpiperidin-3-yl)-1H-benzo[d]imidazole-7-carboximidamide]
1400 | O/N=C(\Nc1ccc(F)c(Cl)c1)c1ccnc2nc(CN3CCCC3)[nH]c12 [Example 139, N-(3-Chloro-4-fluorophenyl)-N′-hydroxy-2-(pyrrolidin-1-ylmethyl)-1H-imidazo[4,5-b]pyridine-7-carboximidamide]
241 | O/N=C(\Nc1ccc(F)c(Cl)c1)c1ccnc2nc(CCN3CCCCC3)[nH]c12 [Example 192, N-(3-Chloro-4-fluorophenyl)-N′-hydroxy-2-(2-(piperidin-1-yl)ethyl)-1H-imidazo[4,5-b]pyridine-7-carboximidamide]
1160 | O/N=C(\Nc1ccc(F)c(Cl)c1)c1ccnc2nc(NCCN3CCOCC3)[nH]c12 [Example 168, N-(3-Chloro-4-fluorophenyl)-N′-hydroxy-2-((2-morpholinoethyl)amino)-1H-imidazo[4,5-b]pyridine-7-carboximidamide]
765 | O/N=C(\Nc1ccc(F)c(Cl)c1)c1ccnc2nc(CNCC3CC3)[nH]c12 [Example 117, N-(3-Chloro-4-fluorophenyl)-2-(((cyclopropylmethyl)amino)methyl)-N′-hydroxy-1H-imidazo[4,5-b]pyridine-7-carboximidamide]
358 | O/N=C(\Nc1ccc(F)c(Cl)c1)c1ccnc2nc(CCN3CCCC3)[nH]c12 [Example 193, N-(3-Chloro-4-fluorophenyl)-N′-hydroxy-2-(2-(pyrrolidin-1-yl)ethyl)-1H-imidazo[4,5-b]pyridine-7-carboximidamide]

Same assay, conditions: HeLa cells, IFNγ-induced IDO1, kynurenine in supernatant, 48 hour incubation; geometric mean of a minimum of four determinations

EC50 [nM] | SMILES
> 10000 | O/N=C(\Nc1ccc(F)c(Cl)c1)c1cc(F)c(F)c2nc(N[C@@H]3CNC[C@@H]3O)[nH]c12 [Example 468, N-(3-chloro-4-fluorophenyl)-4,5-difluoro-N′-hydroxy-2-(((3R,4S)-4-hydroxypyrrolidin-3-yl)amino)-1H-benzo[d]imidazole-7-carboximidamide]
559 | CN(C)CCCNc1nc2c(F)c(F)cc(/C(=N/O)Nc3cccc(Br)c3)c2[nH]1 [Example 386, N-(3-bromophenyl)-2-((3-(dimethylamino)propyl)amino)-4,5-difluoro-N′-hydroxy-1H-benzo[d]imidazole-7-carboximidamide]

— patent publication US9951065B2 (Gilead Sciences, Inc., priority 2015, dated 2018)
